The species entered for one series is Homo sapiens. The series can be described thus: Selectivity index, ratio of IC50 for recombinant HDAC1(unknown origin) to IC50 for full length recombinant human HDAC6.
A further series concerns the target Histone deacetylase 1 (Homo sapiens, UniProt Q13547). As to the kind of experiment: Inhibition of recombinant HDAC1 (unknown origin) using Boc-Lys(acetyl)-AMC as substrate preincubated for 1 hr followed by substrate addition and measured after 2 hrs by fluorescence based microplate reader analysis.
In the next series the target is Histone deacetylase 2 (Homo sapiens, UniProt Q92769). As to the kind of experiment: Inhibition of recombinant HDAC2 (unknown origin) using Boc-Lys(acetyl)-AMC as substrate preincubated for 1 hr followed by substrate addition and measured after 2 hrs by fluorescence based microplate reader analysis.
Series [1] deals with T1, Histone deacetylase 3 (Homo sapiens, UniProt O15379). As to the kind of experiment: Inhibition of recombinant HDAC3 (unknown origin) using Boc-Lys(acetyl)-AMC as substrate preincubated for 1 hr followed by substrate addition and measured after 2 hrs by fluorescence based microplate reader analysis.
Series [2] deals with T2, Protein deacetylase HDAC6 (Homo sapiens, UniProt Q9UBN7).
T2 sequence (Q9UBN7 whole entry): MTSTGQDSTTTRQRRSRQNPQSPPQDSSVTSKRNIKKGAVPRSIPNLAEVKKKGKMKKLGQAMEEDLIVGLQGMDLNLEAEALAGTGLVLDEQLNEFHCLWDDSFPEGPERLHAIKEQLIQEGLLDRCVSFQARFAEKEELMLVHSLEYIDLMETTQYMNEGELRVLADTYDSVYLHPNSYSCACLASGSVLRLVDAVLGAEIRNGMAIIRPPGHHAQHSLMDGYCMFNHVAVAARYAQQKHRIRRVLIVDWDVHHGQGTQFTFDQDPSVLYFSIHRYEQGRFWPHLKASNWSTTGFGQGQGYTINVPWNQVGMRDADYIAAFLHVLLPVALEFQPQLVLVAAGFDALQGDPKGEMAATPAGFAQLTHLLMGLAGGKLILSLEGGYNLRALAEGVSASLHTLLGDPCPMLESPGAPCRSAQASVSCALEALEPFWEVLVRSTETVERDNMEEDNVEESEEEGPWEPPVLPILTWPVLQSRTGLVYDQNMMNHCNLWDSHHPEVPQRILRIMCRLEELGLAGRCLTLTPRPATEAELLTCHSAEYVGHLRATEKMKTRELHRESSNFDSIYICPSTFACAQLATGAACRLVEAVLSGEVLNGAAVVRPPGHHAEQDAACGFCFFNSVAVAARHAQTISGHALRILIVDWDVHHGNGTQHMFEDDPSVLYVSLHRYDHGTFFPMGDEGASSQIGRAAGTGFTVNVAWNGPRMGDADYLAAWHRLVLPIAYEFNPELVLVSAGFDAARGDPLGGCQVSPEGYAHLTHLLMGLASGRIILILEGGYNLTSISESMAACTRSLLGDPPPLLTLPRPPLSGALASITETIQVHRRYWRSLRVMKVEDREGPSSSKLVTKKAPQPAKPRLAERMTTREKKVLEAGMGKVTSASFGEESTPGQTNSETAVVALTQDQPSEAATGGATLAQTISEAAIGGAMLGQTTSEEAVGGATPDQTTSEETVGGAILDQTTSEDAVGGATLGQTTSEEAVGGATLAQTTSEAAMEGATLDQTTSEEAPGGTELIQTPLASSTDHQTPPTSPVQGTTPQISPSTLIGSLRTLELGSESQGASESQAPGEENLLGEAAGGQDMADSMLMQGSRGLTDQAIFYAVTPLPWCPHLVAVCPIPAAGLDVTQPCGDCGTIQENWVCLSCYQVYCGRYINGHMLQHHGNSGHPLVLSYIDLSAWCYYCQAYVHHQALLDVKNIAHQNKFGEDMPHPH
The series can be described thus: Inhibition of recombinant HDAC6 (unknown origin) using Boc-Lys(acetyl)-AMC as substrate preincubated for 1 hr followed by substrate addition and measured after 2 hrs by fluorescence based microplate reader analysis.

Series [3] concerns the target T1, Histone deacetylase 3. As to the kind of experiment: Inhibition of HDAC3 (unknown origin).
The nature of series [4]: Inhibition of HDAC11(unknown origin) preincubated for 1 hr followed by substrate addition and measured after 2 hrs by fluorescence based microplate reader analysis. Also noted: species or system Homo sapiens.
A short description of series [5]: Cmax in CD-1 mouse at 5 mg/kg, iv measured after 0.083 to 24 hrs by LC-MS/MS analysis. In kind it is ADME, organism-based. Also noted: dose 5 mg/kg, time 0.083-24 hrs, route iv. The following applies: in vivo.
The nature of series [6]: Half life in CD-1 mouse at 5 mg/kg, iv measured after 0.083 to 24 hrs by LC-MS/MS analysis. It counts as ADME, organism-based. The note with it: in vivo, time 0.083-24 hrs.
Series [7] is described as follows: AUC(0 to infinity) in CD-1 mouse at 5 mg/kg, iv measured after 0.083 to 24 hrs by LC-MS/MS analysis. In kind it is ADME, organism-based. On the set-up: dose 5 mg/kg, time upper 24 hrs, time lower 0.083 hrs, route iv. The note with it: in vivo.

The structures appear in SMILES notation.

Chain of Histone deacetylase 2 (Q92769 whole entry): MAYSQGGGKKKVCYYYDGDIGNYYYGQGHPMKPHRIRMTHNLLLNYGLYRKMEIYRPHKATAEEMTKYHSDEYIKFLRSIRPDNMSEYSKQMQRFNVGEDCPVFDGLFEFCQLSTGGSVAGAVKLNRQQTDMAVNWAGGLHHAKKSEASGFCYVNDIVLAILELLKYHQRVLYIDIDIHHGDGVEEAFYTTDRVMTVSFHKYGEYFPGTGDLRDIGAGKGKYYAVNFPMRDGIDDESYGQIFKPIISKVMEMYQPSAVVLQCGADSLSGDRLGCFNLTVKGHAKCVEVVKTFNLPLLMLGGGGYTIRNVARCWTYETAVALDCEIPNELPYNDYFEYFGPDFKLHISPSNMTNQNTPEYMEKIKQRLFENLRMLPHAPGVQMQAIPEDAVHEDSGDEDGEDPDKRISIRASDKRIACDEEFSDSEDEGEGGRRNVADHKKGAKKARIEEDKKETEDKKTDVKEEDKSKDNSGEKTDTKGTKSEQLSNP
T1 sequence (O15379 whole entry): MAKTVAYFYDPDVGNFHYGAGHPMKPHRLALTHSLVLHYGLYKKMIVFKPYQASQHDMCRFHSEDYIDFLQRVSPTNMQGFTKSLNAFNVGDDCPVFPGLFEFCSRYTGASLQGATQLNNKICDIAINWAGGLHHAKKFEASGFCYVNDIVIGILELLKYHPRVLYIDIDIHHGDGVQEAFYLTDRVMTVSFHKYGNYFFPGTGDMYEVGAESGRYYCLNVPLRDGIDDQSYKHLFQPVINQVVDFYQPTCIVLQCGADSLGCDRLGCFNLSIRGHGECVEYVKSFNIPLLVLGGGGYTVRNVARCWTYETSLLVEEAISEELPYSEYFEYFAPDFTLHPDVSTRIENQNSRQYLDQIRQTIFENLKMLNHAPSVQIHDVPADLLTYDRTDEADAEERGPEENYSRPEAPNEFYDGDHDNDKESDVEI
Chain of Histone deacetylase 1 (Q13547 whole entry): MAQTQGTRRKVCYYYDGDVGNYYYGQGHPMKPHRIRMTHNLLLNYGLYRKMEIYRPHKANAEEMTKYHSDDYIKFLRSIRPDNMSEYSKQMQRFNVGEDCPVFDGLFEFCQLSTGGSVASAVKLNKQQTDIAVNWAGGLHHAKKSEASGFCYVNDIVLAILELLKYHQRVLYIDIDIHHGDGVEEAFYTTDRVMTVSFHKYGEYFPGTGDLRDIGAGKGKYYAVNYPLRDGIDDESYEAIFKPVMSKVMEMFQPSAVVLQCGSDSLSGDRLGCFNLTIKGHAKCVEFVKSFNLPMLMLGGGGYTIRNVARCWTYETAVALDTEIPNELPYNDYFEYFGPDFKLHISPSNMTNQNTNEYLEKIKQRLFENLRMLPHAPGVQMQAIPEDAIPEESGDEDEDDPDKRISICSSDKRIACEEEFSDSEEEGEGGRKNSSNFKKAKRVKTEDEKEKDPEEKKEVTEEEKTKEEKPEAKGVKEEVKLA

`CCCCN(Cc1ccc(C(=O)NNCC)cc1)C(=O)c1ccccc1`: in the series filed under Homo sapiens, the Ratio IC50 was 6.7. The IC50 (usually the concentration needed to halve the response being measured) on Histone deacetylase 1 was determined as 1270 nM; at Histone deacetylase 2, 187 nM; at Histone deacetylase 3 [1], 446 nM; in series [2] it was 189 nM.
For `CCNNC(=O)c1ccc(CN2c3ccccc3Sc3ccccc32)cc1` the same measures were more than 28, more than 5000 nM, more than 5000 nM, 3960 nM and 175 nM.
With `CCNNC(=O)c1ccc(Cn2c3ccccc3c3cccnc32)cc1`, in the series filed under Homo sapiens, the Ratio IC50 was 77. Besides, the IC50 at Histone deacetylase 1 came out at 2860 nM; on Histone deacetylase 2, 2340 nM; on Histone deacetylase 3 [1], 1590 nM; in series [2], 37 nM.
`CCNNC(=O)c1ccc(CN2c3ccccc3C=Cc3ccc(C)cc32)cc1`: the Ratio IC50 in the series filed under Homo sapiens turned out to be 30. The half-inhibitory concentration (IC50) on Histone deacetylase 1 was determined as 2270 nM; at Histone deacetylase 2, 4390 nM; on Histone deacetylase 3 [1] it was 469 nM; in series [2], 76 nM.
With `CCNNC(=O)c1coc(-c2ccc(Br)cc2)c1`, the IC50 (on Histone deacetylase 1; at Histone deacetylase 2; at Histone deacetylase 3 [1]; in series [2]) was more than 5000 nM in each case.
For `CCNNC(=O)c1ccc(Cn2ccc3cc(C(=O)c4ccc(OC)cc4)ccc32)cc1`, the Ratio IC50 in the series listed under Homo sapiens came out at 1.2. In addition, the IC50 at Histone deacetylase 1 was 543 nM; on Histone deacetylase 2, 913 nM; at Histone deacetylase 3 [1], 217 nM; in [2], 449 nM.
For `CCNNC(=O)c1ccc(CN2c3ccccc3C=Cc3ccc(C(F)(F)F)cc32)cc1`, in that order: more than 29, more than 5000 nM, more than 5000 nM, 1850 nM and 173 nM.
For the molecule `CCNNC(=O)c1csc(-c2cccnc2)n1`, the IC50 on Histone deacetylase 1 is more than 5000 nM; at Histone deacetylase 2 it was 316 nM; at Histone deacetylase 3 [1] it was more than 5000 nM; in series [2], more than 5000 nM.
`CCNNC(=O)c1ccc(Cn2nnnc2-c2cccs2)cc1`: the Ratio IC50 in the series listed under Homo sapiens was 5. The IC50 at Histone deacetylase 1 amounted to 80 nM; on Histone deacetylase 2 it was 41 nM; on Histone deacetylase 3 [1], 26 nM; in series [2], 16 nM.
`CCNNC(=O)c1ccc(Cn2c3ccccc3c3ccccc32)cc1`: in the series listed under Homo sapiens, the Ratio IC50 was more than 14. Besides, the IC50 is more than 5000 nM at Histone deacetylase 1, more than 5000 nM on Histone deacetylase 2, 2330 nM on Histone deacetylase 3 [1] and 361 nM in series [2].
Consider `CCCCN(Cc1ccc(C(=O)NNCC)cc1)C(=O)Nc1ccccc1`, for which, in the series listed under Homo sapiens, the Ratio IC50 was 2.5. For the same molecule, the IC50 stood at 341 nM at Histone deacetylase 1, 78 nM on Histone deacetylase 2, 191 nM on Histone deacetylase 3 [1] and 132 nM in series [2].
As for `CCNNC(=O)c1ccc(CNC(=O)Nc2cccc3cccnc23)cc1`, the IC50 on Histone deacetylase 1 stood at 3 nM; on Histone deacetylase 2 it was 6 nM; at Histone deacetylase 3 [1], 0.9 nM; in [2], 34 nM.
As for `CCNNC(=O)c1ccc(CNc2cccc3cccnc23)cc1`, the IC50 on Histone deacetylase 1 was determined as 659 nM; on Histone deacetylase 2 it was 82 nM; at Histone deacetylase 3 [1], 147 nM; in series [2], 41 nM.
For `CNNC(=O)c1ccc(CNC(=O)c2ccccc2)cc1`, in the series filed under Homo sapiens, the Ratio IC50 was 5.2. Further, the values for the IC50 (on Histone deacetylase 1; in series [2]) were 4620 nM and 878 nM, respectively.
`CCCCN(Cc1ccc(C(=O)NO)cc1)C(=O)Nc1ccccc1` [NEXTURASTAT A] showed an IC50 against Histone deacetylase 3 [3] of 6.08 µM.
With `CCNNC(=O)c1ccc(CNC(=O)c2ccccc2)cc1`, the Ratio IC50 in the series listed under Homo sapiens amounted to 5.1. Also, the IC50 on Histone deacetylase 1 is 399 nM; in series [2], 78 nM.
For the molecule `CCNNC(=O)c1ccc(NC(=O)Nc2cccc3cccnc23)cc1`, in the series filed under Homo sapiens, the Ratio IC50 turned out to be 0.9. The IC50 at Histone deacetylase 1 was 1430 nM; at Histone deacetylase 2 it was 233 nM; at Histone deacetylase 3 [1], 446 nM; in [2] it was 1530 nM.
For `CCNNC(=O)c1ccc(CN2c3ccccc3CCc3ccccc32)cc1` the same measures were more than 20, more than 5000 nM, more than 5000 nM, 3950 nM and 250 nM.
With `CCNNC(=O)c1ccc(Cn2c(=O)n(CCc3ccccc3)c(=O)c3ccccc32)cc1`, the Ratio IC50 in the series listed under Homo sapiens turned out to be 11. Besides, the IC50 at Histone deacetylase 1 came out at 1690 nM; on Histone deacetylase 2, 1200 nM; on Histone deacetylase 3 [1] it was 77 nM; in series [2], 145 nM.
For `CCNNC(=O)c1ccc(CN2c3ccccc3C=Cc3nc(C)nc(C)c32)cc1`, in the series filed under Homo sapiens, the Ratio IC50 was determined as 48. Further, the IC50 at Histone deacetylase 1 was 2260 nM; on Histone deacetylase 2 it was more than 5000 nM; at Histone deacetylase 3 [1] it was 1160 nM; in [2], 47 nM.
For `CCNNC(=O)c1ccc(CN2c3ccccc3Sc3cccnc32)cc1`, the Ratio IC50 in the series listed under Homo sapiens is 65. Further, the IC50 is 3990 nM on Histone deacetylase 1, more than 5000 nM at Histone deacetylase 2, 1770 nM at Histone deacetylase 3 [1] and 61 nM in series [2].
Regarding `CCNNC(=O)c1ccc(CN2c3ccccc3C=Cc3ccc(F)cc32)cc1`, the Ratio IC50 in the series filed under Homo sapiens was determined as 68. In addition, the IC50 came out at 2520 nM on Histone deacetylase 1, 4120 nM on Histone deacetylase 2, 563 nM at Histone deacetylase 3 [1] and 37 nM in series [2].
Molecule `O=C(CCCCCCNC(=O)c1cnc(N(c2ccccc2)c2ccccc2)nc1)NO` [RICOLINOSTAT] registered a half-inhibitory concentration (IC50) in series [4] of more than 5 µM. The highest level in series [5] (Cmax) was 372 ng/mL. Also, the half-life – broadly, the time needed for the level to fall by half in the phase considered – in series [6] was 157 min. Besides, the AUC(0-inf) (usually the area under the concentration-time curve extrapolated to infinity) in [7] came to 342 ng·h/mL.
Consider `CCNNC(=O)c1ccc(Cn2c3c(c4ccccc42)CCCC3)cc1`, for which the Ratio IC50 in the series listed under Homo sapiens is more than 11. The IC50 on Histone deacetylase 1 is more than 5000 nM; on Histone deacetylase 2, more than 5000 nM; on Histone deacetylase 3 [1], more than 5000 nM; in series [2], 455 nM.
Consider `CCNNC(=O)c1ccc(CN2c3ccccc3CC(=O)c3ccccc32)cc1`, for which the Ratio IC50 in the series listed under Homo sapiens was found to be 37. In addition, the IC50 on Histone deacetylase 1 was 3920 nM; at Histone deacetylase 2, more than 5000 nM; at Histone deacetylase 3 [1], more than 5000 nM; in series [2] it was 105 nM.
Consider `CCNNC(=O)c1ccc(Cn2c3ccccc3c3cnccc32)cc1`, for which, in the series filed under Homo sapiens, the Ratio IC50 is more than 45. For the same molecule, the IC50 on Histone deacetylase 1 is more than 5000 nM; on Histone deacetylase 2, 3230 nM; at Histone deacetylase 3 [1], 4610 nM; in series [2], 110 nM.
As for `CCNNC(=O)c1ccc(CN2c3ccccc3Cc3ccccc32)cc1`, in the series listed under Homo sapiens, the Ratio IC50 was determined as 13. Moreover, the IC50 is 3190 nM at Histone deacetylase 1, more than 5000 nM at Histone deacetylase 2, 1430 nM at Histone deacetylase 3 [1] and 235 nM in series [2].
As for `CCCNNC(=O)c1ccc(CNC(=O)c2ccccc2)cc1`, in the series listed under Homo sapiens, the Ratio IC50 worked out at 0.002. The values for the IC50 (on Histone deacetylase 1; in series [2]) were 13 nM and more than 5000 nM, respectively.
With `CCNNC(=O)c1ccc(Cn2c3ccccc3c3ccncc32)cc1`, in the series listed under Homo sapiens, the Ratio IC50 was more than 68. Also, the IC50 is more than 5000 nM on Histone deacetylase 1, 4380 nM at Histone deacetylase 2, more than 5000 nM on Histone deacetylase 3 [1] and 73 nM in series [2].
Consider `CCNNC(=O)c1ccc(CN2c3ccccc3C=Cc3ccccc32)cc1`, for which the Ratio IC50 in the series filed under Homo sapiens is 54. Further, the IC50 at Histone deacetylase 1 was 2300 nM; on Histone deacetylase 2, more than 5000 nM; at Histone deacetylase 3 [1], 1610 nM; in series [2], 42 nM.
For `CCNNC(=O)c1ccc(CN2c3ccccc3Oc3ccccc32)cc1`, in that order: more than 6, more than 5000 nM, more than 5000 nM, 3130 nM and 843 nM.

The record behind these values is ChEMBL document CHEMBL5113527, “First-in-Class Hydrazide-Based HDAC6 Selective Inhibitor with Potent Oral Anti-Inflammatory Activity by Attenuating NLRP3 Inflammasome Activation” (J Med Chem, 2022).
